This is an account of results in patent publication US8466202B2, “Anthracenedione compounds” (Sunten Phytotech Co., Ltd., priority 2006, dated 2013).

The assay deals with healthy male S.D. rats. The assay is described as follows: Feces production in rats over the 10-day period (Example 3). The assay is classed as in vivo, rat. The conditions noted are these: Sennosides 3.35 mg/kg. In a few lines: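 Male S.D. rats (n=6 per arm) received sennosides 3.35 mg/kg/day, STD05 or ARE at 8 or 24 mg/kg/day, single anthraquinones at 4 mg/kg/day, or CP at 8 mg/kg/day over 10 days, with untreated controls. On days 1, 5 and 10, rats in metabolic cages gave 24-h feces, which were weighed wet, counted and dried at 100° C. to derive water content.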

Where [1] appears, read: Group I, Day 1, STD05 8 mg/kg, ARE 8 mg/kg, Aloe-emodin 4 mg/kg, Rhein 4 mg/kg.
[2] abbreviates: Group I, Day 5, STD05 8 mg/kg, ARE 8 mg/kg, Aloe-emodin 4 mg/kg, Rhein 4 mg/kg.
The mark [3] stands for this setting: Group I, Day 10, STD05 8 mg/kg, ARE 8 mg/kg, Aloe-emodin 4 mg/kg, Rhein 4 mg/kg.
The mark [4] stands for this setting: Group II, Day 1, STD05 24 mg/kg, ARE 24 mg/kg, Chrysophanol 4 mg/kg, Emodin 4 mg/kg.
[5] abbreviates: Group II, Day 5, STD05 24 mg/kg, ARE 24 mg/kg, Chrysophanol 4 mg/kg, Emodin 4 mg/kg.
The mark [6] stands for this setting: Group II, Day 10, STD05 24 mg/kg, ARE 24 mg/kg, Chrysophanol 4 mg/kg, Emodin 4 mg/kg.

Regarding Sennosides, the Pellet count is on record as 101 under setting [1]; 119 under setting [2]; 146 under setting [3]; 134 under setting [4]; 118 under setting [5]; 132 under setting [6]. Further, the Water content is on record as 45.69% under setting [1]; 48.68% under setting [2]; 57.4% under setting [3]; 61.09% under setting [4]; 61.53% under setting [5]; 53.99% under setting [6]. Moreover, the “Wet Weight” value is, setting by setting: under setting [1], 18.72 g; under setting [2], 26.16 g; under setting [3], 36.38 g; under setting [4], 36.19 g; under setting [5], 36.42 g; under setting [6], 36.21 g.
